Reference: PubChem BioAssay (NCI)
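A five-concentration, 48-hour dose response in 96-well plates underlies each endpoint, interpolated linearly between surrounding concentrations. Here, GI50 denotes the concentration required for 50% inhibition of growth. TGI: total growth inhibition.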

Experiments:
Experiment in all cases: NCI-60 cell line screen, 48 h
HS 578T breast = test system: HS 578T breast
MALME-3M melanoma = test system: MALME-3M melanoma
TK-10 renal = test system: TK-10 renal
KM12 colon = test system: KM12 colon
A549 NSCLC = test system: A549 NSCLC
OVCAR-3 ovarian = test system: OVCAR-3 ovarian
UACC-62 melanoma = test system: UACC-62 melanoma
PC-3 prostate = test system: PC-3 prostate
UO-31 renal = test system: UO-31 renal
MDA-MB-435 = test system: MDA-MB-435

Row | Structure (SMILES) | GI50 (HS 578T breast) | TGI (HS 578T breast) | GI50 (MALME-3M melanoma) | TGI (MALME-3M melanoma) | GI50 (TK-10 renal) | TGI (TK-10 renal) | GI50 (KM12 colon) | TGI (KM12 colon) | GI50 (A549 NSCLC) | TGI (A549 NSCLC) | GI50 (OVCAR-3 ovarian) | TGI (OVCAR-3 ovarian) | GI50 (UACC-62 melanoma) | TGI (UACC-62 melanoma) | GI50 (PC-3 prostate) | TGI (PC-3 prostate) | GI50 (UO-31 renal) | TGI (UO-31 renal) | GI50 (MDA-MB-435) | TGI (MDA-MB-435)
1 | COC(=O)[C@H](Cc1ccc(O)cc1)NC(=O)[C@@H](OC)[C@@H]1Cc2cc3cc(OC4CC(OC5CC(O)C(O)C(C)O5)C(O)C(C)O4)c(C)c(O)c3c(O)c2C(=O)[C@H]1OC1CC(OC2CC(OC3CC(C)(O)C(O)C(C)O3)C(O)C(C)O2)C(O)C(C)O1 (stereo not given in full) | 65.4 nM | 5360 nM | 39.7 nM | 492 nM | 793 nM | > 25000 nM | 106 nM | > 25000 nM | 150 nM | > 25000 nM | 155 nM | > 25000 nM | 22.3 nM | 106 nM | 106 nM | > 25000 nM | 914 nM | > 25000 nM | 93.1 nM | 2330 nM
2 | CCCCCCc1nc2nc(Cl)c(Cl)nc2[nH]1 | > 100000 nM | > 100000 nM | 4630 nM | > 100000 nM | 9900 nM | > 100000 nM | 6880 nM | > 100000 nM | 4340 nM | > 100000 nM | 4010 nM | > 100000 nM | 3200 nM | > 100000 nM | 4680 nM | > 100000 nM | 4880 nM | > 100000 nM | 8680 nM | > 100000 nM
3 | CN(C)CCCNC(=O)c1cncnc1Nc1ccc(OCc2cccc(F)c2)c(Cl)c1 | 1560 nM | 3300 nM | 1640 nM | 3020 nM | 1840 nM | 3480 nM | 1740 nM | 3330 nM | 1710 nM | 3370 nM | 1490 nM | 2880 nM | 1820 nM | 3220 nM | 1580 nM | 3110 nM | 1460 nM | 2770 nM | 1800 nM | 3330 nM
4 | Cc1ccc(-c2nc(N3CCCNCC3)c3oc(-c4ccccc4)nc3n2)cc1 | 1940 nM | 4220 nM | 1930 nM | 3480 nM | 1800 nM | 3200 nM | 1890 nM | 3450 nM | 1710 nM | 3120 nM | 1830 nM | 3380 nM | 1710 nM | 3300 nM | 1570 nM | 3000 nM | 1490 nM | 2850 nM | 1770 nM | 3190 nM
